According to article PMC6696338, “Pharmacokinetic and Metabolism Studies of Monomethyl Auristatin F via Liquid Chromatography-Quadrupole-Time-of-Flight Mass Spectrometry” (Molecules, 2019):
Non-standard residues stand in square brackets, D forms with d. Residues, ends and D or L forms follow the SMILES beside them. Dolaproine = CO[C@@H]([C@@H]1CCCN1)[C@@H](C)C(=O)O; Dil = CC[C@H](C)[C@H](NC)[C@@H](CC(=O)O)OC; NMeV = CN[C@H](C(=O)O)C(C)C

What was measured:
[1] = In vitro metabolite profiling in human liver microsome; type: in vitro ADME; details: 90 min, 37 °C
Excerpt: (§1) LC-TOF-MS/MS was consisted of a Shimadzu CBM-20A/LC-20AD chromatographic system (Shimadzu Scientific Instruments, Columbia, MD, USA), with an eksigent CTC HTS PAL auto-sampler (Sciex, Redwood City, CA, USA) and a quadrupole time-of-flight TripleTOF 5600 mass spectrometer (Sciex, Redwood City, CA, USA). Kinetex XB-C18 column (2.1 × 50 mm, Phenomenex) for quantification and Kinetex XB-C18 column (2.1 × 100 mm, Phenomenex) for metabolite profiling studies were used as analytical columns. The LC mobile phase consisted of DW containing 0.1% formic acid (phase A) and ACN containing 0.1% formic acid (phase B). The flow rate was 0.4 mL/min for quantification and 0.3 mL/min for Met ID while maintaining the column temperature at 55 °C. Injection volume was 10 μL.
(§2) (2) Metabolite profiling: The mass spectrometric conditions for the metabolite profiling of MMAF were as follows. The information-dependent analysis (IDA) with high-resolution TOF full scan was operated with electrospray ionization (ESI) in positive ion mode using real-time multiple mass defect filtering (MDF) and dynamic background subtraction. The IDA method consisted of TOF scan (m/z 50 to 1200) for the detection of MMAF and its metabolites. The method was followed by 6 TOF-MS/MS dependent scans (m/z 50 to 1200) for structural elucidation. […]

[2] = Pharmacokinetic study of MMAF in rat (IV and PO), plasma by LC-TOF-MS/MS; type: in vivo; details: male SD rat
Method: Twenty microliters of rat plasma samples were placed in a cluster tube. Four microliters (make-up solution) of DMSO were added to the cluster tube, and 100 μL of ACN was also added. The mixture was capped and vortexed, and then centrifuged for 5 min at 12,000 rpm (4 °C). Following the centrifugation, 70 μL supernatant was transferred to an LC vial and diluted by adding 140 μL of DW.
as §1
(1) Quantification: For TOF-MS/MS scan, the scan range was m/z 100~900. The protonated [M + H]^+ ion of MMAF (m/z 732.5) was used and its product ions at m/z 700.5 and m/z 520.3 were selected as the quantitative ion and the qualitative ion, respectively. The source temperature was set at 500 °C. The curtain gas flow was set at 30 L/min. The ion spray voltage (IVSF) was set at 5500 V. The declustering potential (DP) was 100 V, and the collision energy (CE) was 36 V.
Data acquisition and LC-MS/MS operation were conducted using Analyst® TF Version 1.6 (Sciex, Redwood City, CA, USA). MultiQuant® Version 2.1.1 (Sciex, Redwood City, CA, USA) was used for peak integration for MMAF quantification. The descriptive statistics for the qualification studies were calculated with Excel 2015 (Microsoft, Seoul, Korea). Pharmacokinetic parameters were calculated in a non-compartmental analysis using WinNonlin® version 8.0.0 (Certara, Princeton, NJ, USA). PeakView® Version 2.2 (Sciex, Redwood City, CA, USA) and MetabolitePilot^TM Version 2.0.2 (Sciex, Redwood City, CA, USA) were used for the structural elucidation of metabolites. MedChem Designer (Simulations Plus, Inc, Lancaster, CA, USA) was used for in silico metabolite prediction.
Male Sprague-Dawley (SD) rats were used for rat PK studies of MMAF. For rat PK studies of MMAF, rats were distributed into two different groups (5 mg/kg IV (intravenous) group and 10 mg/kg PO (oral) group). After IV or PO dose, blood samples were collected to heparinized tubes and centrifuged immediately at 10,000 rpm for 5 min. The sampling times were 0, 2, 5, 15, 30, 60, 90, 120, 240, 360, and 1440 min for IV PK and 0, 5, 15, 30, 60, 90, 120, 240, 360, and 1440 min for PO PK. The supernatant was transferred to a clean tube and stored at −80 °C until analysis.

[3] = In vitro metabolite profiling in rat liver microsome; type: in vitro ADME; details: 90 min, 37 °C
Excerpt: as §1, §2

[4] = Preliminary stability tests of MMAF in rat plasma; type: in vitro ADME; details: for Short-term stability, mean concentration / Short-term stability, accuracy %: RT, 4 h; for Short-term stability, accuracy % / Long-term stability, accuracy % / Freeze-thaw stability, accuracy %: n = 3; for Freeze-thaw stability, accuracy %: three cycles
Method: Preliminary stability tests were performed in rat plasma under 4 different conditions, including short-term, freeze-thaw, long-term, and post-preparative stability. The short-term stability was assessed at room temperature (RT) for 4 hrs. The long-term stability was assessed by comparing the freshly prepared control samples to the samples kept frozen for 4 weeks at −80 °C. For the freeze-thaw stability, the stability-test samples were subjected to three freeze and thaw cycles at −80 °C. The post-preparative stability was assessed for the QC samples kept in an auto-sampler (10 °C) for 12 hrs.
The acceptance criteria for all of the qualification were within ±15% of the precision and accuracy.

[5] = qualitative comparison; cited from earlier work
Excerpt: Auristatin is a microtubule-destroying drug. It was derived from marine shell-less mollusk Dolabella auricularia called dolastatins (Figure 1). After the dolastatin was found, it has been studied in the treatment of cancer, malaria, and fungus. After the successful total synthesis of dolastatin 10, various derivatives have been synthesized, such as monomethyl auristatin E (MMAE) and monomethyl auristatin F (MMAF). MMAE and MMAF were developed by Seattle Genetics and used as payloads for ADC. MMAF and MMAE have their advantages and disadvantages. MMAE is m ...

[6] = processed rat plasma QC in auto-sampler, 10 °C, high QC
[7] = processed rat plasma QC in auto-sampler, 10 °C, low QC

Molecule: CC[C@H](C)[C@@H]([C@@H](CC(=O)N1CCC[C@H]1[C@H](OC)[C@@H](C)C(=O)N[C@@H](Cc1ccccc1)C(=O)O)OC)N(C)C(=O)[C@@H](NC(=O)[C@@H](NC)C(C)C)C(C)C [MMAF, monomethyl auristatin F] (H-[NMeV]V[Dil][Dolaproine]F-OH)
- Number of metabolites tentatively identified [1]: seven
- clearance ([2]; Sprague-Dawley, plasma, IV 5 mg/kg, non-compartmental analysis, read-out: Clearance (CL)): 77.3 mL/min/kg
- Vd ([2]; Sprague-Dawley, plasma, IV 5 mg/kg, non-compartmental analysis, read-out: Vss): 1.06 L/kg
- AUC(0-t) ([2]; Sprague-Dawley, IV 5 mg/kg, plasma, non-compartmental analysis): 1090 ng·h/mL
- Cmax ([2]; Sprague-Dawley, IV 5 mg/kg, plasma, non-compartmental analysis, LC-TOF-MS/MS): 8280 ng/mL
- Bioavailability ([2]; PO 10 mg/kg vs IV 5 mg/kg): 0%
- Systemic exposure after oral dosing ([2]; PO 10 mg/kg, plasma): no systemic exposure was observed
- Number of metabolites tentatively identified [3]: four
- Post-preparative stability, area ratio after 12 h as % of first injection [4, 6]: 99.98%
- Post-preparative stability, area ratio of 10th injection (after 12hr) [4, 6]: 7.43
- Post-preparative stability, area ratio after 12 h as % of first injection [4, 7]: 97.93%
- Post-preparative stability, area ratio of 10th injection (after 12hr) [4, 7]: 0.61
- Post-preparative stability, area ratio of 1st injection [4, 6]: 7.43
- Short-term stability, mean concentration ([4]; rat plasma, high QC 1820 ng/mL, LC-TOF-MS/MS, mean of n = 3): 1884.23 ng/mL
- Short-term stability, accuracy % ([4]; rat plasma, high QC 1820 ng/mL): 103.53%
- Short-term stability, mean concentration ([4]; rat plasma, low QC 165.46 ng/mL, LC-TOF-MS/MS, mean of n = 3): 149.90 ng/mL
- Short-term stability, accuracy % ([4]; rat plasma, low QC 165.46 ng/mL): 90.60%
- Long-term stability, mean concentration ([4]; rat plasma, −80 °C, 4 weeks, high QC 1820 ng/mL, LC-TOF-MS/MS, mean of n = 3): 1657.96 ng/mL
- Long-term stability, accuracy % ([4]; rat plasma, −80 °C, 4 weeks, high QC 1820 ng/mL): 91.10%
- Long-term stability, accuracy % ([4]; rat plasma, −80 °C, 4 weeks, low QC 165.46 ng/mL): 95.46%
- Freeze-thaw stability, accuracy % ([4]; rat plasma, −80 °C, high QC 1820 ng/mL): 91.10%
- Freeze-thaw stability, accuracy % ([4]; rat plasma, −80 °C, low QC 165.46 ng/mL): 95.46%
- Stability in rat plasma (in words) ([4]; short-term, long-term, freeze/thaw and post-preparative conditions, acceptance ±15%): stable
- Aggregation tendency relative to MMAE [5]: lower aggregation tendency
- Hydrophilicity relative to MMAE [5]: more hydrophilic
- Systemic toxicity relative to MMAE [5]: lower systemic toxicity

Molecule: monomethyl auristatin E [MMAE]
- IC50 relative to MMAF [5]: lower IC50 than MMAF
- Membrane permeability relative to MMAF [5]: more membrane-permeable
